The text below walks through data of PubChem BioAssay (NCI).

“And” between values parts separate entries of the source, which are not always exact repeats. Equal entries are not always repeated.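 Exposure lasted 48 hours, with cells grown in 96-well plates and compounds tested at five concentrations. GI50 is the concentration that inhibits growth by half. TGI: concentration producing complete growth inhibition.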

Test systems include HCT-15 colon; EKVX NSCLC; SNB-75 CNS; UO-31 renal; HCT-116 colon; CCRF-CEM leukemia; ACHN renal; MCF7 breast; U251 CNS; OVCAR-3 ovarian; HL-60(TB) leukemia; SNB-19 CNS; OVCAR-4 ovarian; MALME-3M melanoma.
Holding throughout (assay): inhibition of tumour cell growth, NCI panel, 48 h

For the compound `CC1CC/C(=C\c2ccc(Cl)cc2)C(=O)/C1=C\c1ccc(Cl)cc1` (centres undefined), the TGI in the test with HCT-15 colon was 50.4 µM; in the test on EKVX NSCLC, 63.7 µM; in the test on SNB-75 CNS, above 100 µM; in the test with UO-31 renal, above 100 µM; with HCT-116 colon it was above 100 µM; in the test on CCRF-CEM leukemia, above 100 µM. For the same compound, the TGI with ACHN renal, in the test on MCF7 breast and with U251 CNS was above 100 µM throughout.

In the case of `CCCOP1(=O)C=C(C)C(Cl)=C(C)C1` (centres undefined), the TGI in the test with HCT-15 colon is 58.4 µM; with OVCAR-3 ovarian, 70.3 µM; in the test with EKVX NSCLC it was above 100 µM; with HL-60(TB) leukemia, 81.6 µM; in the test with SNB-19 CNS, above 100 µM; in the test on SNB-75 CNS, 92.6 µM. Further, the TGI with UO-31 renal was above 100 µM; in the test with HCT-116 colon, 47.5 µM; in the test with CCRF-CEM leukemia it was 59.3 µM; in the test with ACHN renal it was 52.5 µM; in the test on U251 CNS it was 59.3 µM; with OVCAR-4 ovarian, 86.7 µM.

As to `C=C[C@@]1(C)CC(=O)[C@]2(O)[C@@]3(C)[C@@H](OC(C)=O)CCC(C)(C)[C@@H]3[C@H](O)[C@H](OC(C)=O)[C@@]2(C)O1`, the TGI with HCT-15 colon is above 100 µM; in the test with OVCAR-3 ovarian it was above 100 µM; in the test on EKVX NSCLC it was above 100 µM; with SNB-19 CNS, above 100 µM; in the test on SNB-75 CNS, 87.7 µM; in the test on UO-31 renal it was above 100 µM. Also, the TGI with HCT-116 colon, with ACHN renal, in the test with MCF7 breast, in the test with U251 CNS and in the test with OVCAR-4 ovarian was above 100 µM in each case.

Regarding `CC[C@@]1(O)C(=O)OCc2c1cc1n(c2=O)Cc2c-1nc1ccccc1c2C=Nc1ccc(N[C@@H]2c3cc4c(cc3[C@@H](c3cc(OC)c(O)c(OC)c3)[C@H]3C(=O)OC[C@@H]32)OCO4)cc1`, the GI50 with HCT-15 colon was 1.08 µM and 0.236 µM; with OVCAR-3 ovarian, 0.557 µM and 0.185 µM; in the test on EKVX NSCLC, 2.51 µM and 0.665 µM; in the test with MALME-3M melanoma it was 0.676 µM and 0.155 µM; in the test with SNB-75 CNS, 0.0498 µM and < 0.0169 µM; in the test on HCT-116 colon it was 0.0251 µM. The TGI in the test with OVCAR-3 ovarian was 6.01 µM and 0.74 µM; in the test with EKVX NSCLC, 19.9 µM and 10.9 µM; with HL-60(TB) leukemia it was above 100 µM; in the test with SNB-19 CNS it was above 100 µM; with UO-31 renal, 1.52 µM; in the test on HCT-116 colon, 6.45 µM and 0.653 µM. Also, the TGI in the test on CCRF-CEM leukemia was above 100 µM; in the test on ACHN renal, 0.0374 µM; with U251 CNS, above 48.8 µM; in the test on OVCAR-4 ovarian, above 56 µM.

Consider `CC12CC(=O)OC(Cc3ccccc31)O2` (centres undefined), for which the TGI in the test with OVCAR-3 ovarian, with EKVX NSCLC, in the test on MALME-3M melanoma, in the test with HL-60(TB) leukemia, with SNB-19 CNS and in the test with SNB-75 CNS was above 100 µM each time. Also, the TGI with UO-31 renal, in the test on HCT-116 colon, in the test on CCRF-CEM leukemia, in the test with ACHN renal and with U251 CNS was above 100 µM throughout.

In the case of `COc1nc(N)nc2c1n(C)c[n+]2C`, the TGI in the test on HCT-15 colon, in the test on OVCAR-3 ovarian, in the test on EKVX NSCLC, in the test with MALME-3M melanoma, in the test on HL-60(TB) leukemia and with SNB-19 CNS was above 100 µM throughout. In addition, the TGI in the test with SNB-75 CNS, with UO-31 renal, with HCT-116 colon, with CCRF-CEM leukemia, in the test on ACHN renal and with U251 CNS was above 100 µM throughout.

Take `CN1NC2=NCCN=C3NN(C)C(=NCCN=C1S2)S3`: the TGI in the test with HCT-15 colon, in the test with EKVX NSCLC, in the test on HL-60(TB) leukemia, in the test on SNB-19 CNS, in the test on SNB-75 CNS and in the test with HCT-116 colon was above 100 µM each time. The TGI in the test with CCRF-CEM leukemia, in the test with ACHN renal, with U251 CNS and with OVCAR-4 ovarian was above 100 µM throughout.

With `CC[N+](C)(C)c1ccc(C(=C2C=CC(=[N+](C)C)C=C2)c2ccc(N(C)C)cc2)cc1`, the TGI in the test with HCT-15 colon is 89.4 µM; in the test with OVCAR-3 ovarian it was 22.5 µM; in the test on EKVX NSCLC, above 100 µM; in the test on MALME-3M melanoma, 66.3 µM; in the test with HL-60(TB) leukemia it was 6 µM; with SNB-75 CNS it was 33.8 µM. Also, the TGI came out at 70.1 µM in the test with UO-31 renal; 19.5 µM in the test on HCT-116 colon; 33.5 µM with CCRF-CEM leukemia; 62.1 µM in the test on ACHN renal; 14 µM in the test with U251 CNS; 38.3 µM with OVCAR-4 ovarian.

For the compound `COC(=O)CC(SCCO)SCCO`, the TGI with OVCAR-3 ovarian, in the test on EKVX NSCLC, with MALME-3M melanoma, in the test on HL-60(TB) leukemia, with SNB-19 CNS and in the test on SNB-75 CNS was above 100 µM each time. Further, the TGI in the test on UO-31 renal, in the test with HCT-116 colon, in the test with CCRF-CEM leukemia, in the test with ACHN renal and with OVCAR-4 ovarian was above 100 µM each time.
